PMC10005075, “Study on Absorption, Distribution and Excretion of a New Candidate Compound XYY-CP1106 against Alzheimer’s Disease in Rats by LC-MS/MS” (Molecules, 2023)
“Also recorded” adds a separate entry of the source. Where two headings read alike, the source gives them in different places.

Columns and labels:
[1] = Plasma pharmacokinetic study after oral and tail vein administration; assay type: in vivo, Sprague-Dawley (SD) rats; design: clearance: unit not given here; settings: rats; for AUC(0-t): read-out: AUC0–24
Description: Non-compartmental calculations were performed using the PK Solver plug-in (China Pharmaceutical University, Nanjing, China) to estimate the main pharmacokinetic parameters. All values were expressed as the mean ± standard deviation.
Amounts of 100 μL plasma, 100 μL IS working solution (1000 ng/mL), 100 μL aqueous solution containing 0.2% formic acid and 700 μL ice methanol for protein precipitation were successively added into the 1.5 mL centrifuge tube, and it was vortexed for 30 s. Then, it was centrifuged at 13,000 rpm for 10 min at 4 °C, and the upper clarifying solution was extracted and placed in a new 1.5 mL tube and was centrifuged again under the same conditions. Five microliters of the sample were measured and injected into the LC-MS/MS system for analysis.
For oral administration, six SD rats were fed with freely available food and water and fasted with free access to water for 12 h before drug administration. The rats in each group were weighed and recorded; then, the oral dose was 15 mg/kg. The average weight of rats was 200 ± 30 g. At 0.083, 0.25, 0.5, 0.75, 1, 2, 4, 6, 8, 12 and 24 h after oral administration, 0.3 mL of blood samples were collected from the suborbital vein and put into a 1.5 mL heparin sodium tube. The collected plasma sample was centrifuged at 4 °C for 10 min at 3500 revolutions, and 100 μL of supernatant was taken and stored at −20 °C for future use.
For tail vein injection, six SD rats were weighed and recorded; then, XYY-CP1106 (0.384 mg/mL, 1.92 mg/kg) filtered by a 0.22 µm filter membrane was administered via tail vein injection. An amount of 0.3 mL of blood samples were collected from the suborbital vein into heparin sodium tubes at 0.083, 0.25, 0.5, 0.75, 1, 2, 4, 6, 8, 12 and 24 h after caudal intravenous administration. The collected plasma samples were treated in the same way as oral administration.
The oral absolute bioavailability (F) in rats was calculated according to the following equation:F = (AUCoral(0–∞) × Doseiv)/(AUCiv(0–∞) × Doseoral) × 100%,(1)

[2] = Tissue distribution study after oral administration; assay type: in vivo, Sprague-Dawley (SD) rats; settings: rats, oral 15 mg/kg
Description: The tissue sample was weighed and cut into pieces. Normal saline was added to brain tissue at the ration of 1:1 (g: mL) and other tissues at the ration of 1:3 (g: mL). The tissue homogenate was symmetrically placed in a tissue homogenizer to obtain tissue homogenate.
Amount of 0.5 mL of tissue homogenate and 1.5 mL of acetonitrile were added into a 5 mL centrifuge tube for protein precipitation by vortex, and 1 mL of vortex solution was added into a 1.5 mL centrifuge tube and centrifuged at 13,000 revolutions at for 10 min 4 °C. Then, 900 μL supernatant and 100 μL IS working solution were added into a 1.5 mL centrifuge tube to vortex for 30 s. It was centrifuged twice under the same conditions; then, the supernatant (5 μL) was injected into the LC-MS/MS system.
Thirty SD rats were randomly divided into 5 groups (n = 6), fed with freely available food and water and fasted with free access to water for 12 h before drug administration. All rats were weighed and recorded. The 5 groups of rats were given a single oral dose (15 mg/kg) of XYY-CP1106 (1.0 mg/mL) and sacrificed with cervical dislocation at 0.25, 1, 2, 4 and 8 h, respectively. The heart, liver, spleen, lungs, kidneys and brain of the rats were quickly removed, and the blood was carefully rinsed off with physiological saline (0.9%). The normal saline on the surface of all tissue samples was dried with filter paper then stored in a refrigerator at −80 °C.

[3] = Excretory study (urine and feces) after oral administration; assay type: in vivo; settings: rats
Description: After the collected feces were dried at room temperature, a pestle and mortar were used to uniformly crush the feces collected at each time slot. Then, 0.2 g of ground feces were accurately weighed into a 5.0 mL centrifuge tube, 4 mL of methanol solution was added and then it was put into the ultrasonic instrument for ultrasonic extraction for 4 h. Then, 100 μL of feces samples were added into a 1.5 mL centrifuge tube. Next, it was treated the same as the plasma samples.
Urine samples were collected and processed directly. An aliquot of 100 µL of urine sample was taken and processed in the same manner as the plasma samples.
Ten rats were fed with freely available food and water and fasted with free access to water for 12 h before drug administration. They were given a single dose of XYY-CP1106 (15 mg/kg, 1.0 mg/mL) and then put into metabolic cages. Feces and urine were collected at 0–4, 4–8, 8–12, 12–24, 24–36, 36–48, 48–60, 60–72, 72–84 and 84–96 time slots, respectively. The feces collected at each time slot were air-dried to record their weight and stored in a refrigerator at −20 °C before use. The urine volume was recorded at each time slot and stored in a refrigerator at −20 °C before use.

Solubility in water = assay type: physicochemical
Description: A certain amount of XYY-CP1106 was weighed and dissolved completely in methanol. β-cyclodextrin aqueous solution was added to make it 50% methanol and 30% β-cyclodextrin solution. Then, it was placed in ultrasound for 4 h under an ultrasonic bath after vortex. Next, it was freeze-dried for 2 days; then, it was redissolved in PBS solution to the final concentration of 1.0 mg/mL.

[4] = Stability in plasma, tissues, feces and urine under storage conditions; design: species or system rat; settings: automatic sampler 24 h; three freeze–thaw cycles −20 °C to room temperature; −20 °C for 30 days
Description: The stability of XYY-CP1106 standard in plasma, tissues, feces and urine biological samples under different storage conditions was analyzed, including the stability of samples stored at room temperature for 24 h in an automatic sampler, the freeze–thaw stability after three cycles (−20 °C to room temperature was defined as a cycle), and −20 °C for the last 30 days. When the deviation from the standard value was within 15% (low concentration was within 20%), the sample was considered stable. The concentration of standard substance in plasma was 10 and 160 ng/mL. The standard concentration in tissues, feces and urine was 10 and 800 ng/mL.

[5] = design: method as in PMID 31325784; settings: chelating ability for Fe^3+; cited from earlier work
MAO-B = system: MAO-B; design: method as in PMID 31325784; settings: cited from earlier work
[6] = system: scopolamine-induced AD mouse model; design: method as in PMID 31325784; settings: scopolamine-induced AD mice, intraperitoneal injection 10 mg/kg; cited from earlier work
[7] = Sprague-Dawley, rat, plasma, iv, I.V (tail vein) 1.92 mg/kg, n = 6
[8] = Sprague-Dawley, rat, plasma, po, P.O 15 mg/kg, n = 6

Work on `Cc1c(O)c(=O)ccn1Cc1cc2ccc(OCc3cccc(F)c3)cc2oc1=O` [XYY-CP1106] yielded a Tmax ([1]; Sprague-Dawley, rat, plasma, 15 mg/kg, oral administration, read-out: time to maximum plasma concentration (converted)) of 0.75 h, an AUC(0-inf) [1, 7] of 599 ± 31.8 ng·h/mL and a Cmax [1, 7] of 691 ± 120 ng/mL. It also gave a clearance [1, 7] of 0.0268, a half-life [1, 7] of 3.5 ± 2.24 h and an AUC(0-t) [1, 7] of 540 ± 43.7 ng·h/mL. It also gave a Tmax ([1]; Sprague-Dawley, rat, plasma, iv, I.V (tail vein) 1.92 mg/kg, n = 6, read-out: Tmax) of 0.083 h, a half-life ([1]; Sprague-Dawley, rat, plasma, oral, P.O 15 mg/kg, n = 6) of 8.26 to 10.1 h and a Tmax ([1]; Sprague-Dawley, rat, plasma, oral, P.O 15 mg/kg, n = 6, read-out: Tmax) of 0.57 to 0.93 h. For the same compound, the bioavailability ([1]; Sprague-Dawley, rat, plasma, po, P.O 15 mg/kg vs I.V 1.92 mg/kg, from AUC0–∞, read-out: absolute oral bioavailability (F)) was 10.7 ± 1.72%, the AUC(0-inf) [1, 8] was 503 ± 77.7 ng·h/mL and the Cmax [1, 8] was 153 ± 15.9 ng/mL. The half-life [1, 8] was 9.16 ± 0.9 h, the AUC(0-t) [1, 8] was 428 ± 66.1 ng·h/mL and the V ([1]; I.V (tail vein) 1.92 mg/kg, n = 6) was 0.00403 ± 0.0018 L/kg. The V ([1]; P.O 15 mg/kg, n = 6) was 0.4017 ± 0.06959 L/kg, the concentration at 2 h ([2]; Sprague-Dawley, rat, brain, 2 h after administration) was 501 ± 260 ng/g and the “blood–brain barrier penetration” value ([2]; detected in brain tissue, 15 mg/kg) was “could pass through the blood–brain barrier; also recorded: could penetrate the blood–brain barrier; also recorded: penetrating the BBB”. For the same compound, the “main tissues of distribution” value ([2]; heart, liver, spleen, lung, kidney, brain, 0.25-8 h) was “mainly distributed in the liver and kidneys”, the “time of maximum excretion rate in feces” value ([3]; 15 mg/kg by gavage) was 8 to 12 h and the “time of maximum excretion rate in urine” value ([3]; 15 mg/kg by gavage) was 4 to 12 h. The “excretion through urine, % of the dose” value ([3]; 15 mg/kg by gavage, within 24 h) was 0.01 ± 0.00%, the “excretion through feces, % of the dose” value ([3]; 15 mg/kg by gavage, within 72 h) was 31.14 ± 0.05% and the “average cumulative excretion through feces” value ([3]; oral 15 mg/kg, prototype drug) was 0.94 ± 0.14 mg. The water solubility (Solubility in water) was “low water solubility; also recorded: almost insoluble in water”, the “stability in biological matrices” value [4] was “stable” and the “pFe^3+” value [5] was 18.04. The IC50 (MAO-B) was 14.7 nM and the “effect on behavioral and cognitive impairment (water maze)” value [6] was “could significantly alleviate the behavioral and cognitive impairment of mice”.
